Consider 18 compounds from patent US20250145606A1 (Arcus Biosciences, Inc., priority 2023, published 2025).

Each structure is given as a SMILES string. Bounds are passed on as bounds.

Common to all, as to conditions: biochemical, HTRF KinEASE-TK
One assay deals with c-Kit (Homo sapiens (Human), UniProt P10721). Description: Inhibition of c-Kit kinase activity (HTRF KinEASE-TK). It is filed as biochemical. How it is done: (§1) Inhibition of c-Kit, PDGFRα, PDGFRβ, CSFIR and FLT3 Kinase Activity
(§2) Compounds were evaluated to determine the potency with which they inhibit the kinase activity of the following panel of tyrosine kinases: c-Kit (SignalChem, Product #: K06-11BG), PDGFRα (SignalChem, Product #: P12-18G), PDGFRβ (SignalChem, Product #: P13-11G), CSFIR (SignalChem, Product #: C74-11G) and FLT3 (Invitrogen, Product #: PR4666C). Activity was determined as a function of phosphorylated biotinylated TK peptide generated by the transfer of phosphate from ATP as measured by the use of the HTRF KinEASE-TK assay kit (Cisbio, Product #: 62TKOPEJ). Levels of phosphorylated biotinylated TK peptide (Part 61TKOBLC of KinEASE assay kit) are quantified by its capture by phosphor-TK-Antibody-Cryptate (Part of KinEASE assay kit) and XL665-labeled Streptavidin (Part 610SAXLG of KinEASE assay kit) followed by measurement of Time-Resolved Fluorescence Resonance Energy Transfer (TR-FRET) signal. On the day of the assay, compounds were solubilized in DMSO and dispensed into a 384-well white Opti-plate (PerkinElmer, catalog #6007290) to generate a 22 point 1:2 titration. Enzyme solution was prepared for each of the tyrosine kinases in 50 mM HEPES, pH 7.4, 5 mM MgCl2 for c-Kit or 10 mM MgCl2 for FLT3, CSFIR, PDGFRa and PDGFRβ, 2 mM MnCl2, 0.01% Brij-35 and 0.01% BSA. Working enzyme concentrations were prepared for c-Kit at 2 nM (2×), PDGFRa and PDGFRß at 10 nM (2×), CSFIR at 2 nM (2×) and FLT3 at 0.4 nM (2×). Five microliters of enzyme dilution of each tyrosine kinase were added to their respective 384-well white Opti-plate pre-dispensed with compound and allowed to incubate for 1 h at rt. Utilizing the same enzyme buffer recipe, 2x substrate mixes were prepared for each enzyme as follows: For c-Kit, 1.6 μM (2×) TK substrate and 16 μM (2×) ATP (Promega, catalog #V915). For PDGFRα, 3.2 μM TK substrate and 1 μM ATP. For PDGFRβ, 3.2 μM TK substrate and 40 μM ATP. For CSFIR, […] TK substrate and 20 μM ATP. For FLT3, 3.2 μM TK substrate and 100 μM ATP. Reactions were initiated by addition of 5 μL of the respective 2x substrate mix to each well of the plates containing the respective tyrosine kinase enzymes and were allowed to proceed for 120 minutes at rt, except for FLT3, the reaction time is 45 min. Following the reaction, 10 μL of detection mix consisting of 0.2 μM (2×) of Streptavidin-XL665 and 2 μM (2×) of TK-Antibody-Cryptate prepared in detection buffer (Part 62SDBRDF of KinEASE assay kit) was added and then allowed to incubate for 60 min. The TR-FRET signal was quantified by measuring the ratio of emission at 665 nm to 620 nm after excitation at 320 nm by reading on a PerkinElmer Envision multimode reader. Compound potencies (IC50 values) were determined using a standard 4-parameter non-linear regression fit.

The target of a further assay is PDGFRα (Homo sapiens (Human), UniProt P16234). Description: Inhibition of PDGFRα kinase activity (HTRF KinEASE-TK). The protocol:
as §1, §2

The next assay addresses PDGFRβ (Homo sapiens (Human), UniProt P09619). Description: Inhibition of PDGFRβ kinase activity (HTRF KinEASE-TK). The protocol:
as §1, §2

The target in a further assay is CSF1R (Homo sapiens (Human), UniProt P07333). The assay is described as follows: Inhibition of CSF1R kinase activity (HTRF KinEASE-TK). How it is done: as §1, §2
Sequence of CSF1R (P07333 20-972): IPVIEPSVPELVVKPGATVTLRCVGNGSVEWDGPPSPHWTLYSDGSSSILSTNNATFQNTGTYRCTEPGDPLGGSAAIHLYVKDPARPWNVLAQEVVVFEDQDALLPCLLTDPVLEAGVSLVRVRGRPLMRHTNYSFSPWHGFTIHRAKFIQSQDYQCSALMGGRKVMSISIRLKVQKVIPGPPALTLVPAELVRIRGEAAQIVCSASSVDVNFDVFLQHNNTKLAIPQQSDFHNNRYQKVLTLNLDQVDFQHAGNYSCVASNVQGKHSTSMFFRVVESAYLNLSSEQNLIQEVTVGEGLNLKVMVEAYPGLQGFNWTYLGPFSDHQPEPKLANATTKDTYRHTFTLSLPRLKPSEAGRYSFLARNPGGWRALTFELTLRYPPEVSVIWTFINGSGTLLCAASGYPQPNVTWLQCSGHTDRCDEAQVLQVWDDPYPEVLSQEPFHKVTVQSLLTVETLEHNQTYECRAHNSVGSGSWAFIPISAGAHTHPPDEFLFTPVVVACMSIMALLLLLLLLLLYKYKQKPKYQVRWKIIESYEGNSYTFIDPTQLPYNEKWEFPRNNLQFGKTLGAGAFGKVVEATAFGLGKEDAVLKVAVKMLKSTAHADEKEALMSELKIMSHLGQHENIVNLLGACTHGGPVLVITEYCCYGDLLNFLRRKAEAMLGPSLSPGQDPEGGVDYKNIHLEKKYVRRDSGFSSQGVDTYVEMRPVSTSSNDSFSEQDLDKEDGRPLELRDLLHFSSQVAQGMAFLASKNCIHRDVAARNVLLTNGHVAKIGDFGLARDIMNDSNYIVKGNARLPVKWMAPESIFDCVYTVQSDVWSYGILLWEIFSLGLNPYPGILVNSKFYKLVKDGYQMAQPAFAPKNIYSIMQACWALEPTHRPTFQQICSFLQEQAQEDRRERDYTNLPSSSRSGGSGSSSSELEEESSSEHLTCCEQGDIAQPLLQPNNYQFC

Sequence of PDGFRβ (P09619 33-1106): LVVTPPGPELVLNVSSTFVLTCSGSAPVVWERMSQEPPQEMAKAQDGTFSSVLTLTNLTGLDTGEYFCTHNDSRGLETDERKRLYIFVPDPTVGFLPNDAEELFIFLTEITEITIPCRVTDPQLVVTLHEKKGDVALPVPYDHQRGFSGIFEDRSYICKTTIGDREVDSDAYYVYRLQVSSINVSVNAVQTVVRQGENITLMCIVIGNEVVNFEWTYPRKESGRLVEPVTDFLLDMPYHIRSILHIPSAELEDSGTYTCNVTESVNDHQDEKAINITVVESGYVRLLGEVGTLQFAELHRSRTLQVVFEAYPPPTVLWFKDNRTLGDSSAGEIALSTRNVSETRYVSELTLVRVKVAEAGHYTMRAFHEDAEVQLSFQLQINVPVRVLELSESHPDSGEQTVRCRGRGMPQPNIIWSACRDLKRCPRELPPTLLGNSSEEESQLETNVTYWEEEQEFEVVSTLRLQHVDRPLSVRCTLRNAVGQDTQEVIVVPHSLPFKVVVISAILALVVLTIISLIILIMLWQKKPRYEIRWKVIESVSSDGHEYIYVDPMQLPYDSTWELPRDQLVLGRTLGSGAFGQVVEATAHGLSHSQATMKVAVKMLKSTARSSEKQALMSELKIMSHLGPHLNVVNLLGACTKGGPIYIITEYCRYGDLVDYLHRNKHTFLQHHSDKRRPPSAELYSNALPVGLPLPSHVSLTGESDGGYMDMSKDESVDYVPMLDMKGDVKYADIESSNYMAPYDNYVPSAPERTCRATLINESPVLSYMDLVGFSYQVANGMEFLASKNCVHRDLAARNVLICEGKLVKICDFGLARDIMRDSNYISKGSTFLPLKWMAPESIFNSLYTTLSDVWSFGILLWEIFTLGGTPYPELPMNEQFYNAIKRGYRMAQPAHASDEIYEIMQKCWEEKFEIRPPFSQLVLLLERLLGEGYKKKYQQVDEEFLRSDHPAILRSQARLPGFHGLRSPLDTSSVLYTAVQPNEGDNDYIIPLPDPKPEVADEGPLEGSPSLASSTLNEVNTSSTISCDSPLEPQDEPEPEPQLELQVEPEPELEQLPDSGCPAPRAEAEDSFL
Sequence of c-Kit (P10721 26-976): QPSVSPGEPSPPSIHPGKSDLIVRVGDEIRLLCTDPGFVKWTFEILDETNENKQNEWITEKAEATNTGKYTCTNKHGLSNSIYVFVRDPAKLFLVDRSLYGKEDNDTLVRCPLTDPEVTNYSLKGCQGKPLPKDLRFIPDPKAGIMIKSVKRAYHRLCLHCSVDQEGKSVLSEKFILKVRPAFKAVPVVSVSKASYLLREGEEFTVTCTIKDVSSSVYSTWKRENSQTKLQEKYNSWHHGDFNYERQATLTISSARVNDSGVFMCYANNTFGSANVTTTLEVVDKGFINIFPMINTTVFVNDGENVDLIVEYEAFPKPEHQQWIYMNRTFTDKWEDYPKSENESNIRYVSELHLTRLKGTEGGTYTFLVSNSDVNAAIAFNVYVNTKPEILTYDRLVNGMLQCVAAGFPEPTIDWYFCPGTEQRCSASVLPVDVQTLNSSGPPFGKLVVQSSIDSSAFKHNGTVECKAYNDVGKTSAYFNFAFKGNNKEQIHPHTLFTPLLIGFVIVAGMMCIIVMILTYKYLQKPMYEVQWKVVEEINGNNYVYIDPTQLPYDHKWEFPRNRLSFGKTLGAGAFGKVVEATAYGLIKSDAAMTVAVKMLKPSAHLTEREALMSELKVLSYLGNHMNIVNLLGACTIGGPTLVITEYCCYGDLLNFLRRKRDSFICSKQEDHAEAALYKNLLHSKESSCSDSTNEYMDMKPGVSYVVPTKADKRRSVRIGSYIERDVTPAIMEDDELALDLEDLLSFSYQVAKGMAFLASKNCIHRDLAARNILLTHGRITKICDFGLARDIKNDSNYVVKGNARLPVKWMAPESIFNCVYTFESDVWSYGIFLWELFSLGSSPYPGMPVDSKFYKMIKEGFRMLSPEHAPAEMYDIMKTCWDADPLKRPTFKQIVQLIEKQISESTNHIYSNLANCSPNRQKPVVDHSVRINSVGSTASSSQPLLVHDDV
Sequence of PDGFRα (P16234 24-1089): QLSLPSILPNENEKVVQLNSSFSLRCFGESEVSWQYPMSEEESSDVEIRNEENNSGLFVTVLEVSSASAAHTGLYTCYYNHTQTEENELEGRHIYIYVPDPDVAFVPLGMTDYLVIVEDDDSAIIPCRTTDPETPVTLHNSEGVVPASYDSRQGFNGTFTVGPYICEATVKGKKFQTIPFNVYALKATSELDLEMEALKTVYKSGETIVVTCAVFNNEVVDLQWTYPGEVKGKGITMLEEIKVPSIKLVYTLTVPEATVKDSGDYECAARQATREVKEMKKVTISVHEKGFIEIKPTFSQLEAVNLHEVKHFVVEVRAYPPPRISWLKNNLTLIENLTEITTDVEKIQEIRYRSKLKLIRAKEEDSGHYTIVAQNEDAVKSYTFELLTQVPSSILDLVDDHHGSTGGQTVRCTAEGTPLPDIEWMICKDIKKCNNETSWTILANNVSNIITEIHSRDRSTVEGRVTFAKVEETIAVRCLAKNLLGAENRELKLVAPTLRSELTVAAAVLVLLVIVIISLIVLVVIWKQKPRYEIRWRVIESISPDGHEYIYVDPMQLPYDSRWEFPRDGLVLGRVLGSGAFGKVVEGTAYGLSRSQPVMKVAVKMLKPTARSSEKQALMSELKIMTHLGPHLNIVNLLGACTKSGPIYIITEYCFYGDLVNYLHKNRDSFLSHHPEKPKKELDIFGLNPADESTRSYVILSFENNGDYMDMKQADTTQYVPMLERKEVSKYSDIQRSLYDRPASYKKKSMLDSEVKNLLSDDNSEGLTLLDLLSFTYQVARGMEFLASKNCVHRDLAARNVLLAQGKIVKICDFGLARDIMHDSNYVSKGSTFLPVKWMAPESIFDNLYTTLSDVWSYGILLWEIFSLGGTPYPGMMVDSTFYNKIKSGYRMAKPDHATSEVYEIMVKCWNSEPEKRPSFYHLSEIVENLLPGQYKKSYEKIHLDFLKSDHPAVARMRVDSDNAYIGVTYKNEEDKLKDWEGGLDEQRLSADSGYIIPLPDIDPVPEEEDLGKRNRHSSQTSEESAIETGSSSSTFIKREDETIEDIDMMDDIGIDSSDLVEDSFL

In the case of `Cc1nnc(NC(=O)c2cc(NC(=O)c3cnc(N)s3)c(C)cc2F)s1` [Example 162, 2-Amino-N-[4-fluoro-2-methyl-5-[(5-methyl-1,3,4-thiadiazol-2-yl)carbamoyl]phenyl]-1,3-thiazole-5-carboxamide], the IC50 on c-Kit was less than 100 nM; on PDGFRα, more than 1000 nM; against PDGFRβ, more than 1000 nM; against CSF1R, 100 to 1000 nM.

`Cc1cc(F)c(C(=O)NCCCN2CCOCC2)cc1NC(=O)c1cnc(N)s1` [Example 164, 2-Amino-N-[4-fluoro-2-methyl-5-(3-morpholin-4-ylpropylcarbamoyl)phenyl]-1,3-thiazole-5-carboxamide]: the half-inhibitory concentration (IC50) on c-Kit is less than 100 nM; against PDGFRα it was more than 1000 nM; at PDGFRβ, more than 1000 nM; against CSF1R, more than 1000 nM.

On to `Cc1cc(F)c(C(=O)NCCc2ccc(F)cc2)cc1NC(=O)c1cnc(N)s1` [Example 165], for which the IC50 against c-Kit is less than 100 nM; at PDGFRα, 100 to 1000 nM; on PDGFRβ it was less than 100 nM; against CSF1R, 100 to 1000 nM.

With `Cc1cc(F)c(C(=O)Nc2ccc(OC3CC3)cn2)cc1NC(=O)c1cncs1` [Example 169, N-[5-[(5-Cyclopropyloxypyridin-2-yl)carbamoyl]-4-fluoro-2-methylphenyl]-1,3-thiazole-5-carboxamide], the IC50 against c-Kit is less than 100 nM; against PDGFRα it was more than 1000 nM; against PDGFRβ it was more than 1000 nM; at CSF1R, more than 1000 nM.

Turning to `Cc1cc(F)c(C(=O)Nc2nc(C3CC3)cs2)cc1NC(=O)c1cnc(N)s1` [Example 170, 2-Amino-N-[5-[(4-cyclopropyl-1,3-thiazol-2-yl)carbamoyl]-4-fluoro-2-methylphenyl]-1,3-thiazole-5-carboxamide], the IC50 at c-Kit is less than 100 nM; at PDGFRα it was more than 1000 nM; against PDGFRβ, 100 to 1000 nM; against CSF1R, 100 to 1000 nM.

Turning to `Cc1cc(F)c(C(=O)Nc2nc(C)n(C)n2)cc1NC(=O)c1cnc(N)s1` [Example 173, 2-Amino-N-[5-[(1,5-dimethyl-1,2,4-triazol-3-yl)carbamoyl]-4-fluoro-2-methylphenyl]-1,3-thiazole-5-carboxamide], the IC50 against c-Kit is 100 to 1000 nM; at PDGFRα it was more than 1000 nM; against PDGFRβ, more than 1000 nM; on CSF1R, more than 1000 nM.

Turning to `Cc1cc(F)c(C(=O)Nc2ncn(C)n2)cc1NC(=O)c1cnc(N)s1` [Example 174, 2-Amino-N-[4-fluoro-2-methyl-5-[(1-methyl-1,2,4-triazol-3-yl)carbamoyl]phenyl]-1,3-thiazole-5-carboxamide], the half-inhibitory concentration (IC50) at c-Kit is 100 to 1000 nM; against PDGFRα, more than 1000 nM; on PDGFRβ, more than 1000 nM; against CSF1R, more than 1000 nM.

On to `Cc1cc(F)c(C(=O)Nc2nnc(C3CC3)s2)cc1NC(=O)c1cnc(N)s1` [Example 175, 2-Amino-N-[5-[(5-cyclopropyl-1,3,4-thiadiazol-2-yl)carbamoyl]-4-fluoro-2-methylphenyl]-1,3-thiazole-5-carboxamide], for which the IC50 at c-Kit was less than 100 nM; on PDGFRα, 100 to 1000 nM; on PDGFRβ, less than 100 nM; on CSF1R, less than 100 nM.

As to `Cc1cc(F)c(C(=O)Nc2nnc(C3CC3)[nH]2)cc1NC(=O)c1cnc(N)s1` [Example 176, 2-Amino-N-[5-[(5-cyclopropyl-4H-1,2,4-triazol-3-yl)carbamoyl]-4-fluoro-2-methylphenyl]-1,3-thiazole-5-carboxamide], the concentration for half-maximal inhibition (IC50) on c-Kit was 100 to 1000 nM; on PDGFRα, more than 1000 nM; against PDGFRβ, more than 1000 nM; against CSF1R it was more than 1000 nM.

As for `Cc1cc(F)c(C(=O)Nc2cc(C3CC3)[nH]n2)cc1NC(=O)c1cnc(N)s1` [Example 177, 2-Amino-N-[5-[(5-cyclopropyl-1H-pyrazol-3-yl)carbamoyl]-4-fluoro-2-methylphenyl]-1,3-thiazole-5-carboxamide], the IC50 on c-Kit was less than 100 nM; on PDGFRα it was 100 to 1000 nM; on PDGFRβ it was 100 to 1000 nM; against CSF1R it was 100 to 1000 nM.

In the case of `Cc1cc(F)c(C(=O)Nc2cc(C(F)(F)F)ccn2)cc1NC(=O)c1cnc(N)s1` [Example 178, 2-Amino-N-[4-fluoro-2-methyl-5-[[4-(trifluoromethyl)pyridin-2-yl]carbamoyl]phenyl]-1,3-thiazole-5-carboxamide], the IC50 against c-Kit, on PDGFRα, at PDGFRβ and on CSF1R was less than 100 nM each time.

Take `Cc1cc(F)c(C(=O)Nc2cc3n(n2)CCN(C)C3)cc1NC(=O)c1cnc(N)s1` [Example 180, 2-Amino-N-[4-fluoro-2-methyl-5-[(5-methyl-6,7-dihydro-4H-pyrazolo[1,5-a]pyrazin-2-yl)carbamoyl]phenyl]-1,3-thiazole-5-carboxamide]: the IC50 is less than 100 nM against c-Kit, more than 1000 nM against PDGFRα, more than 1000 nM against PDGFRβ and more than 1000 nM on CSF1R.

Consider `Cc1cc(F)c(C(=O)Nc2cc3n(n2)CCOC3)cc1NC(=O)c1cnc(N)s1` [Example 182, 2-Amino-N-[5-(6,7-dihydro-4H-pyrazolo [5,1-c][1,4]oxazin-2-ylcarbamoyl)-4-fluoro-2-methylphenyl]-1,3-thiazole-5-carboxamide], for which the IC50 on c-Kit is less than 100 nM; at PDGFRα, more than 1000 nM; at PDGFRβ it was 100 to 1000 nM; at CSF1R, more than 1000 nM.

As for `Cc1cc(F)c(C(=O)Nc2ccc3c(c2)NC(=O)C3(C)C)cc1NC(=O)c1cnc(N)s1` [Example 183, 2-Amino-N-[5-[(3,3-dimethyl-2-oxo-1H-indol-6-yl)carbamoyl]-4-fluoro-2-methylphenyl]-1,3-thiazole-5-carboxamide], the IC50 at c-Kit is less than 100 nM; against PDGFRα, less than 100 nM; against PDGFRβ it was less than 100 nM; against CSF1R, 100 to 1000 nM.

In the case of `Cc1cc(F)c(C(=O)Nc2ccc3c(c2)C(C)(C)C(=O)N3)cc1NC(=O)c1cnc(N)s1` [Example 184, 2-Amino-N-[5-[(3,3-dimethyl-2-oxo-1H-indol-5-yl)carbamoyl]-4-fluoro-2-methylphenyl]-1,3-thiazole-5-carboxamide], the half-maximal inhibitory concentration (IC50) on c-Kit was less than 100 nM; against PDGFRα it was less than 100 nM; against PDGFRβ, less than 100 nM; against CSF1R it was 100 to 1000 nM.

In the case of `CO[C@H]1C[C@@H](n2nccc2NC(=O)c2cc(NC(=O)c3cnc(N)s3)c(C)cc2F)C1` [Example 186, 2-Amino-N-[4-fluoro-5-[[2-(cis-3-methoxycyclobutyl)pyrazol-3-yl]carbamoyl]-2-methylphenyl]-1,3-thiazole-5-carboxamide], the IC50 on c-Kit is 100 to 1000 nM; on PDGFRα, more than 1000 nM; at PDGFRβ, more than 1000 nM; against CSF1R, more than 1000 nM.

Consider `Cc1cc(F)c(C(=O)Nc2ccc3c(c2)C(F)(F)C(=O)N3)cc1NC(=O)c1cnc(N)s1` [Example 188, 2-Amino-N-[5-[(3,3-difluoro-2-oxo-1H-indol-5-yl)carbamoyl]-4-fluoro-2-methylphenyl]-1,3-thiazole-5-carboxamide], for which the 50% inhibitory concentration (IC50) at c-Kit, against PDGFRα, against PDGFRβ and on CSF1R was less than 100 nM throughout.

In the case of `Cc1cc(F)c(C(=O)Nc2cc(C3CC3)ccn2)cc1NC(=O)c1cnc(N)s1` [Example 190, 2-Amino-N-[5-[(4-cyclopropylpyridin-2-yl)carbamoyl]-4-fluoro-2-methylphenyl]-1,3-thiazole-5-carboxamide], the IC50 against c-Kit, at PDGFRα, at PDGFRβ and against CSF1R was less than 100 nM in each case.
